Columns and labels:
Experiment in all cases: KinomeScan profiling
Type in all cases: binding
AKT1 = target: T1, AKT1 (Homo sapiens, UniProt P31749); details: AKT1, 1 μM; read-out: % control
T1 construct: purchased KinomeScan®
Summary of the method: (§1)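 Percent-of-control values derive from RLU, calculated as (test − positive)/(negative − positive) × 100, where DMSO defines 100% and a positive control compound defines 0%. Each compound was tested at 1 μM in the 468-kinase panel; sub-35% readings indicate activity.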

CDC2L1 = CDC2L1 (Homo sapiens, UniProt P21127); details: CDC2L1, 1 μM; read-out: % control
Summary of the method: as §1

CLK2 = CLK2 (Homo sapiens, UniProt P49760); details: CLK2, 1 μM; read-out: % control
Sequence of CLK2 (P49760 whole entry): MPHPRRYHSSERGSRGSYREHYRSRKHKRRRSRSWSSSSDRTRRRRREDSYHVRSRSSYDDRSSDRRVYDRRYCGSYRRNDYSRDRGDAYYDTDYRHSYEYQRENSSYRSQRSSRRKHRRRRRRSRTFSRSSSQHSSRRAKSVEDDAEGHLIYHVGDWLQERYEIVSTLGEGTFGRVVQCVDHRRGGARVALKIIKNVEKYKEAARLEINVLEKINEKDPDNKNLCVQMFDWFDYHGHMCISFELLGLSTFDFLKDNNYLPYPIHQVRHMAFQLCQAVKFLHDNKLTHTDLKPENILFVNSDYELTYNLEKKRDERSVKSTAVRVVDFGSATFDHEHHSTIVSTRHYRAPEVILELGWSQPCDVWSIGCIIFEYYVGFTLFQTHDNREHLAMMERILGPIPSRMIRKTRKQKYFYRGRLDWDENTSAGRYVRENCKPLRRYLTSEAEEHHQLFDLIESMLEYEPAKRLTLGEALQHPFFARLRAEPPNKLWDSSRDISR
Summary of the method: as §1

FLT3 = target: T2, FLT3 (Homo sapiens, UniProt P36888); details: FLT3, 1 μM; read-out: % control
T2 sequence (P36888 27-993): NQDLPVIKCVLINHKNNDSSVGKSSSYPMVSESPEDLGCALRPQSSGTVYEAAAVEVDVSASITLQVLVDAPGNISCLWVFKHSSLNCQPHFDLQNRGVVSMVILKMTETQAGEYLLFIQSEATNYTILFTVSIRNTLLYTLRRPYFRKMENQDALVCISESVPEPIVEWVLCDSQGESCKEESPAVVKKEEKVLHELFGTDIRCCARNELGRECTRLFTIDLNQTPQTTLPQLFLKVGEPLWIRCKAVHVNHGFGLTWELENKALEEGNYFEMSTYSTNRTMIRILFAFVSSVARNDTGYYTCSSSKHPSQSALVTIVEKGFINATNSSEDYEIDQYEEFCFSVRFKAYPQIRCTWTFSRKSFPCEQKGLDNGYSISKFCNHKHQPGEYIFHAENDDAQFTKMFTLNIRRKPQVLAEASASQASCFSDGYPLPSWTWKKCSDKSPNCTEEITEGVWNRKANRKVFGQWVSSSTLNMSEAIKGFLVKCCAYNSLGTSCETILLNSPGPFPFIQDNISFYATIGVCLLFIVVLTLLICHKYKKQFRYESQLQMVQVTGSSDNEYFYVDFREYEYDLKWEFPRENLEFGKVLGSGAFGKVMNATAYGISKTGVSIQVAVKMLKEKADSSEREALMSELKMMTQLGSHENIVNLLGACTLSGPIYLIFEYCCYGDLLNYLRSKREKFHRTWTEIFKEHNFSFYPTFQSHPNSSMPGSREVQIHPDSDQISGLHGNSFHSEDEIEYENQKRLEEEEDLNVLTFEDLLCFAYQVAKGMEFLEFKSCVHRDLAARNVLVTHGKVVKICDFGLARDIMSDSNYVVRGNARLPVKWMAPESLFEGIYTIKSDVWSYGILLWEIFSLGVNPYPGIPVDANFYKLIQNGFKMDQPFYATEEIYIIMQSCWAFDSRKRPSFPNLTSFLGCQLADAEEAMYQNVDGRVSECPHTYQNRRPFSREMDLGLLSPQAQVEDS
Summary of the method: as §1

MAST1 = MAST1 (Homo sapiens, UniProt Q9Y2H9); details: MAST1, 1 μM; read-out: % control
Sequence of MAST1 (Q9Y2H9 whole entry): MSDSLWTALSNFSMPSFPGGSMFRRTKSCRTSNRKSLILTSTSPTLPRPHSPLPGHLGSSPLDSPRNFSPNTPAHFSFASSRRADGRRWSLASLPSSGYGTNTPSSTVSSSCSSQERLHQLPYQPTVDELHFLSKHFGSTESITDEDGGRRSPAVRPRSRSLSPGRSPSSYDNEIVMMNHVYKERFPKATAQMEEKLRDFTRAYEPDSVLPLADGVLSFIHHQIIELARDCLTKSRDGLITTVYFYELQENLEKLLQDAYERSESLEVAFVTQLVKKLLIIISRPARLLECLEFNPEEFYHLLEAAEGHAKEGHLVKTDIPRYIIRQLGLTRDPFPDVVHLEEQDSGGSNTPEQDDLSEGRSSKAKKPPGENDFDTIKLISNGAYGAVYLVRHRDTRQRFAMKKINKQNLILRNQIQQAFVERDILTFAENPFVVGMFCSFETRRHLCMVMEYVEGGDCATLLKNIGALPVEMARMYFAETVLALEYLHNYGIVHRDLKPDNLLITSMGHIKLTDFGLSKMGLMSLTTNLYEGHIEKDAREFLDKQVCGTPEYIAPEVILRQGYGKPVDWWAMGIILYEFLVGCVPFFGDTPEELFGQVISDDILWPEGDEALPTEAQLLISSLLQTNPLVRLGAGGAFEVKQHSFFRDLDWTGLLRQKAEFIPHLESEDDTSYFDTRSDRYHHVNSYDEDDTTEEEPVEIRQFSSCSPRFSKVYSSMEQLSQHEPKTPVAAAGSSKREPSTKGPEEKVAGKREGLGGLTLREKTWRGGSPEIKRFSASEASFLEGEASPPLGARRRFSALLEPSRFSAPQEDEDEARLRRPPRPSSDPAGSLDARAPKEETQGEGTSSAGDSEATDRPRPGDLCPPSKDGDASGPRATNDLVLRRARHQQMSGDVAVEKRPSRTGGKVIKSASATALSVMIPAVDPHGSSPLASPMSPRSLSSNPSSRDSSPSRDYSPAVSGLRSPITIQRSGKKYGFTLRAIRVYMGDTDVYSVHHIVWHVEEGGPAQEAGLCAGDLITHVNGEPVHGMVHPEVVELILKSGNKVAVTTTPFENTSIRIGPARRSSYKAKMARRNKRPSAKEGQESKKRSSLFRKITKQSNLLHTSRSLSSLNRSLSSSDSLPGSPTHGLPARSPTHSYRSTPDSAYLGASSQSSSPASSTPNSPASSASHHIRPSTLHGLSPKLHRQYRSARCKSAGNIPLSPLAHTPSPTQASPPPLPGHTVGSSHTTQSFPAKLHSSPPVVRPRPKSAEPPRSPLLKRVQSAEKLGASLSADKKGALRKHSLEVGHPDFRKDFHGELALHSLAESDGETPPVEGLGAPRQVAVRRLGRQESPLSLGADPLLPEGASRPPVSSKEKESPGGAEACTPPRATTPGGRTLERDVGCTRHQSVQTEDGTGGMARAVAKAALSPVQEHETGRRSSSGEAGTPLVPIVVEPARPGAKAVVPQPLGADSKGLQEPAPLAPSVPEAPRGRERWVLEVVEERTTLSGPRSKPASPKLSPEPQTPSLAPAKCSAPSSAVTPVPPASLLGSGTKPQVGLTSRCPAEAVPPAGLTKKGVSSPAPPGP
Summary of the method: as §1

PRKG2 = target: T3, PRKG2 (Homo sapiens, UniProt Q13237); details: PRKG2, 1 μM; read-out: % control
T3 sequence (Q13237 1-762): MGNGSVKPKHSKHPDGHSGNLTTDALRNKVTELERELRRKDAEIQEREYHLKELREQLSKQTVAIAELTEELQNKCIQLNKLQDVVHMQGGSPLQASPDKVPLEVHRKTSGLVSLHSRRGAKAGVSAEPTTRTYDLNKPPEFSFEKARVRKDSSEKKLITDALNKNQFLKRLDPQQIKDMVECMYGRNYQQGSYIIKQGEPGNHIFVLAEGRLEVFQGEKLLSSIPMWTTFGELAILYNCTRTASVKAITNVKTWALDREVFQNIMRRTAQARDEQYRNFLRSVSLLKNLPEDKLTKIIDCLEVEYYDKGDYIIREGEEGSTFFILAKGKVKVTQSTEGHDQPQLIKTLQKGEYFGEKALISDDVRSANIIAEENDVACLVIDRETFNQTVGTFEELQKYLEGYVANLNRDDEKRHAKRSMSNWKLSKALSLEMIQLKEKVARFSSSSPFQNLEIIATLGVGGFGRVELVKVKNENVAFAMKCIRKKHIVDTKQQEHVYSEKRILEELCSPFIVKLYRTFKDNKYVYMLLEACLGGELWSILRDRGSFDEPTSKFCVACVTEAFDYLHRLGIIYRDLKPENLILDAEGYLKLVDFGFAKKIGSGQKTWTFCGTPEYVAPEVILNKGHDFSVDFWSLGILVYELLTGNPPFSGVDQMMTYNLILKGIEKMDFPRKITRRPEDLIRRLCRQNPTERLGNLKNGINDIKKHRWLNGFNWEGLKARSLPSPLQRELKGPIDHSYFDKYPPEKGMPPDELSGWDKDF
Summary of the method: as §1

QSK = QSK (Homo sapiens, UniProt Q9Y2K2); details: read-out: % control
Sequence of QSK (Q9Y2K2 whole entry): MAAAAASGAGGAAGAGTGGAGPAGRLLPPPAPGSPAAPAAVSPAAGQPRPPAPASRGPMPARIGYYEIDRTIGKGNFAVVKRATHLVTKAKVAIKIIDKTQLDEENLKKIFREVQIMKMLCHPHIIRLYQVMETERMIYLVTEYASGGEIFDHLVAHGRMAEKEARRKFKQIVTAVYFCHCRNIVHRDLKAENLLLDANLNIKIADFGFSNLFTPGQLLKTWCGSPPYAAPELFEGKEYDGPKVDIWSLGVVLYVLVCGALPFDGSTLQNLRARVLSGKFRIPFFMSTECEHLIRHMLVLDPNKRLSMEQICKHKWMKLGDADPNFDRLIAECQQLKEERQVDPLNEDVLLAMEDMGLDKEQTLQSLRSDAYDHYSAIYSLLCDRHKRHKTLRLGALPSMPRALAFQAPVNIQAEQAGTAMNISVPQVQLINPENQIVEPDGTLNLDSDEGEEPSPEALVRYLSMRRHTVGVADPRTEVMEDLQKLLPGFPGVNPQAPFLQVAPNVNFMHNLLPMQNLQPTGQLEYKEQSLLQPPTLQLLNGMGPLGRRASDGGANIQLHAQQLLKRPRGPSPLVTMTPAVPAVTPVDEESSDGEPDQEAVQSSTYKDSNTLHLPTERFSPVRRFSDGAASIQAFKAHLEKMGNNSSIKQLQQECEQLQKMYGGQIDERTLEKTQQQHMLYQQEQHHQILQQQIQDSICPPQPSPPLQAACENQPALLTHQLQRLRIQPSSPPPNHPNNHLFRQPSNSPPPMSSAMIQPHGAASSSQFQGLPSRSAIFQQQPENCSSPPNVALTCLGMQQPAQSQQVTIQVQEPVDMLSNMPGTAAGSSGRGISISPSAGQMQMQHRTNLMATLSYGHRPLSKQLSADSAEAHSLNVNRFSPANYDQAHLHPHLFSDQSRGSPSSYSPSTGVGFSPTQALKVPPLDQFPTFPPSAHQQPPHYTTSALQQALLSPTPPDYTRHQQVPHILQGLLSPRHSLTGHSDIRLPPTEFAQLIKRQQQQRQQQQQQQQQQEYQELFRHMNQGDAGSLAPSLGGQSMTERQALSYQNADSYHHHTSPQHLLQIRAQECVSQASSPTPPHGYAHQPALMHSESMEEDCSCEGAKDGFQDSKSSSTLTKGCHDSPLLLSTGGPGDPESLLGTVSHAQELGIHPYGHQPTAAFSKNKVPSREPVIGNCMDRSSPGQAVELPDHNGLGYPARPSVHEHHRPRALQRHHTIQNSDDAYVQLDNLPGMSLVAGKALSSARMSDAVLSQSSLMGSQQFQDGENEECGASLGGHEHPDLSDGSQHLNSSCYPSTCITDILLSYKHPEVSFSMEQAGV
Summary of the method: as §1

[1] = target: T4, RSK3(Kin.Dom.1-N-terminal) (Homo sapiens, UniProt Q15349); details: read-out: % control
T4 construct: RSK3(Kin.Dom.1-N-terminal)
T4 sequence (Q15349 59-318 limits assumed): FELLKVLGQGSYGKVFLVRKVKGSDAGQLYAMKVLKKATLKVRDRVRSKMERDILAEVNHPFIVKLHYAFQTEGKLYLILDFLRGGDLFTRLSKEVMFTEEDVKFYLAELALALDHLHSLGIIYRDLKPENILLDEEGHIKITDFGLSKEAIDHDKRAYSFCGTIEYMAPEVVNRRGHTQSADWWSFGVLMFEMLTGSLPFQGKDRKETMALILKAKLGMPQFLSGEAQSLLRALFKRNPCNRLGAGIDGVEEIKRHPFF
Summary of the method: as §1

TSSK1B = target: T5, TSSK1B (Homo sapiens, UniProt Q9BXA7); details: read-out: % control
T5 sequence (Q9BXA7 1-367): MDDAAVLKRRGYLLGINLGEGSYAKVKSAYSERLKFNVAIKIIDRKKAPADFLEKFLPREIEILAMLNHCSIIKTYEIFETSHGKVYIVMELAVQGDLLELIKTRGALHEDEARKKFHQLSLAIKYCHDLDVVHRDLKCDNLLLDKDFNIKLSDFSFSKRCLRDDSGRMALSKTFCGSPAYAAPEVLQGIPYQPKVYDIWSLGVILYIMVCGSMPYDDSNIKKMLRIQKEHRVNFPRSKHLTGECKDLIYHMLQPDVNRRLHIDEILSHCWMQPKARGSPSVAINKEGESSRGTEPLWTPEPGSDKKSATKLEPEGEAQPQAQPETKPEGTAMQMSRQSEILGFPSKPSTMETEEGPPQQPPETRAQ
Summary of the method: as §1

[2] = target: T6, TYK2(JH2domain-pseudokinase) (Homo sapiens, UniProt P29597); details: read-out: % control
T6 construct: TYK2(JH2domain-pseudokinase)
T6 sequence (P29597 589-875 limits assumed): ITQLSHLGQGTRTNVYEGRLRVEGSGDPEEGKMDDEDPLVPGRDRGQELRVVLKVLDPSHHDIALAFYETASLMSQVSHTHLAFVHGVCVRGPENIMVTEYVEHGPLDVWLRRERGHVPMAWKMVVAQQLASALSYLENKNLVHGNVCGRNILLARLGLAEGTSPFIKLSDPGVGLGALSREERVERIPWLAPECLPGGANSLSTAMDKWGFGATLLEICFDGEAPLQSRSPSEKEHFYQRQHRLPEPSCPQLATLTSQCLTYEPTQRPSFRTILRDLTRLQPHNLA
Summary of the method: as §1

T1 sequence (P31749 whole entry): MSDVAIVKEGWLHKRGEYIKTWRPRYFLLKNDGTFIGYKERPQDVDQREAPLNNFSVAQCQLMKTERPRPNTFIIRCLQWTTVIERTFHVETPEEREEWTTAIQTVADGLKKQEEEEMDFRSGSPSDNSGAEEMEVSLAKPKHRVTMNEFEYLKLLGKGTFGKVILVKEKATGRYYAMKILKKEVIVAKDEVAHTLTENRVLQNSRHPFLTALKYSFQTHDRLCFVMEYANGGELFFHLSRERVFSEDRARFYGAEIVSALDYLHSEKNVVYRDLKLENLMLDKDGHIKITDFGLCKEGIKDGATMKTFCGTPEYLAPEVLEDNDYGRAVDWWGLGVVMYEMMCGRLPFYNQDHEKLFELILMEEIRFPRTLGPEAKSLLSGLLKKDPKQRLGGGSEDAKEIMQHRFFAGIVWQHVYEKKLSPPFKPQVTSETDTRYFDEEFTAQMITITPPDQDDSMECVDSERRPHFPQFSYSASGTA

SMILES | remaining binding at 1 µM (AKT1) [%] | remaining binding at 1 µM (CDC2L1) [%] | remaining binding at 1 µM (CLK2) [%] | remaining binding at 1 µM (FLT3) [%] | remaining binding at 1 µM (MAST1) [%] | remaining binding at 1 µM (PRKG2) [%] | remaining binding at 1 µM (QSK) [%] | remaining binding at 1 µM [1] [%] | remaining binding at 1 µM (TSSK1B) [%] | remaining binding at 1 µM [2] [%]
CNc1c(-c2cnn([C@H]3CCN(C(C)=O)C[C@@H]3F)c2)cnc2[nH]cc(Cl)c12 [Compound 77, 1-((3S,4S)-4-(4-(3-chloro-4-(methylamino)-1H-pyrrolo[2,3-b]pyridin-5-yl)-1H-pyrazol-1-yl)-3-fluoropiperidin-1-yl)ethan-1-one] | 100 | 99 | 57 | 3.3 | 50 | 100 | 76 | 80 | 99 | 84
CNc1c(-c2ccc(C(=O)N3CCC(N4CCOCC4)CC3)cc2)cnc2[nH]cc(Cl)c12 [Compound 96, (4-(3-chloro-4-(methylamino)-1H-pyrrolo[2,3-b]pyridin-5-yl)phenyl)(4-morpholinopiperidin-1-yl)methanone] | 100 | 96 | 11 | 6.7 | 24 | 100 | 76 | 78 | 100 | 89
O=C(c1ccc(-c2cnc3[nH]cc(Cl)c3c2NC2CCCC2)cc1)N1CCC(N2CCOCC2)CC1 [Compound 101, (4-(3-chloro-4-(cyclopentylamino)-1H-pyrrolo[2,3-b]pyridin-5-yl)phenyl)(4-morpholinopiperidin-1-yl)methanone] | 96 | 94 | 65 | 4.9 | 70 | 100 | 97 | 66 | 41 | 100
